Patent US11198711B2 (priority 2013, dated 2021)

How the values were obtained:
[1] = system: Mamestra brassicae larvae; assay: Injection bioassay with Mamestra brassicae larvae; type: in vivo; conditions: injection at up to 40 μg/insect
Protocol: 3rd-5th instar Mamestra brassicae larvae (approximately 30-55 mg in weight) were used for injection bioassays. Larvae were injected with varying doses of Hv1a, pro-Hv1a, pro-Hv1a/GNA, PI1a, Ao1bProPI1a, PI1a/GNA, Ao1bPro-PI1a/GNA, or Hv1aPro-PI1a/GNA (n=20 per dose) in 5 μl of PBS (phosphate buffered saline; 0.15 M NaCl, 0.015 M sodium-phosphate buffer, pH 7.2). Larvae for controls were injected with 5 μl 1×PBS. Paralysis and mortality was recorded 12-96 h after injection.

[2] = system: Mamestra brassicae larvae; assay: Droplet-feeding (oral) assay with Mamestra brassicae larvae; type: in vivo
Protocol: Droplet-feeding assays were carried out to assess the oral activity of Hv1a/GNA, pro-Hv1a/GNA, PI1a, Ao1bProPI1a, PI1a/GNA, Ao1bPro-PI1a/GNA, or Hv1aPro-PI1a/GNA towards third to fifth instar larvae of M. brassicae. Larvae were starved for approximately 24 h before feeding in order to encourage droplet consumption. Larvae were fed with a 2 μl droplet containing 20 μg of the above fusion proteins, 30 μg of toxins or 30 μg of GNA, in 1×PBS solution containing 10% sucrose (w/w). Control larvae were fed on PBS/sucrose droplets containing no added protein. Treated larvae were placed on standard artificial diet after consumption of the droplet.

Spodoptera sp. = conditions: native PI1a, literature value; cited from earlier work
[3] = system: vertebrate calcium channels; conditions: cited from earlier work
[4] = system: invertebrate calcium channels; conditions: cited from earlier work

Which mortality [1] does the source give for snowdrop lectin (GNA) here?
Its mortality is “do not result in mortality”.

And the reductions in survival ([2]; 30 μg control treatments, 3rd stadium)?
Its reductions in survival is 0-20%.

What about the “mortality after 5 days” value ([2]; single 2 μl droplet containing 20 μg, third instar) of the same substance?
Its value is 20%.

With “δ-amaurobitoxin-PI1a [Pl1a (literature)]” as the substance, how does the LD50 (Spodoptera sp.) read?
Its LD50 is 9.5 µg/g.

Which “block of vertebrate calcium channels” value [3] does the source give for ω-ACTX-Hv1a [Hv1a (literature)] here?
The value was “not vertebrate”.

What about the “block of invertebrate calcium channels” value [4] of the same substance?
The value was “block invertebrate”.
